Laboratory results taken from patent US12129235B2, “TSPO binders” (The University Court of the University of Glasgow, priority 2018, dated 2024).

Experiments:
[1] = Dosimetry from whole-body mouse PET, OLINDA/EXM adult human phantom; assay type: in vivo, mice; settings: for Effective Dose / Estimated Absorbed Dose, Adrenals / Estimated Absorbed Dose, Brain / Estimated Absorbed Dose, Breasts / Estimated Absorbed Dose, Gallbladder Wall / Estimated Absorbed Dose, Heart Wall / Estimated Absorbed Dose, Kidneys / Estimated Absorbed Dose, LLI Wall / Estimated Absorbed Dose, Liver / Estimated Absorbed Dose, Lungs / Estimated Absorbed Dose, Muscle / Estimated Absorbed Dose, Osteogenic Cells / Estimated Absorbed Dose, Ovaries / Estimated Absorbed Dose, Pancreas / Estimated Absorbed Dose, Red Marrow / Estimated Absorbed Dose, Skin / Estimated Absorbed Dose, Small Intestine / Estimated Absorbed Dose, Spleen / Estimated Absorbed Dose, Stomach Wall / Estimated Absorbed Dose, Thymus / Estimated Absorbed Dose, Thyroid / Estimated Absorbed Dose, Total Body / Estimated Absorbed Dose, ULI Wall / Estimated Absorbed Dose, Urinary Bladder Wall / Estimated Absorbed Dose, Uterus / Estimated Absorbed Dose, Testes: adult human phantom
Method: 13 PET scans were performed with ^18F-LW223 (mean injected radioactivity of 19.55±2.1 MBq). Scans were acquired following i.v. bolus injection of ^18F-LW223 via tail vein or femoral vein shunt (invasive kinetic modelling experiments with β-probe automatic blood sampler) in rats. Test-retest scans were obtained in three rats following i.v. bolus of the radiotracer, with two weeks interval between test and retest imaging sessions. […] These scans were compared to baseline scans where no PK11195 was used. For displacement studies, rats received i.v. administration of ^18F-LW223 and scanned continuously for 120 min. […] A male and female mouse were initially used to derive the dosimetry estimates for ^18F-LW223 over a 4 h dynamic scan, followed by additional mice in a further study (in a study with a mean injected radioactivity of 10.83±5.6 MBq).
The following organs were identified as source organs: brain, heart, lungs, gallbladder, liver, gut, adrenals, kidneys and bladder. A whole-body VOI was drawn around the animal body and was used for quantification of whole-body remainder activity as whole-body activity minus source organs activity. At each time point, the measured activity of the source organs was expressed as the percent injected dose (% ID).
The residence time T, defined as the ratio of accumulated activity in the target organ (A) and injected activity (A0); τ=Ā/A0, was calculated as the area under the curve of the tissue time-activity curve normalized to % ID from time zero to infinity. The trapezoidal method was used for estimating T and after the last measured time point, it was assumed that the radiotracer underwent only physical decay with no biological elimination from the source organ. Calculated T were normalized for differences in mouse and human organ weights as a percentage of total body weight (based on data known from Khanuja et al.; Bielohuby et al.; Stabin et al.; Hindorf et al.; and Hui et al.), and entered into OLINDA/EXM 1.0 software, which was used to estimate organ doses and effective doses according to the male or female model implemented in OLINDA/EXM 1.0.

TSPO = TSPO (Rattus norvegicus, UniProt P16257); test: ^18F-LW223 PET/CT in rat model of myocardial infarction; assay type: in vivo, rats; design: from tissue; host or cells: living Sprague-Dawley rats (brain, heart, lungs and other organs); settings: heart, brain and lungs; 7 days after myocardial infarction
Source text: Rats underwent permanent of ligation of the left anterior descending coronary artery to induce myocardial infarction and after 7 days were imaged using ^18F-LW223 PET/CT (see FIG. 11). Naive rats were used as a healthy control for comparison. […] This indicates a myocardial infarction mediated increase in expression of TSPO within these organs which may also be interpreted as increased systemic inflammation.

[2] = Observation after in vivo administration of ^18F-LW223
[3] = Female, additional work with further mice
[4] = Male, additional work with further mice

Effective Dose [1, 3]: 2.37E−02 mSv/MBq
Estimated Absorbed Dose, Adrenals [1, 3]: 3.54E−02 mGy/MBq
Estimated Absorbed Dose, Brain [1, 3]: 5.49E−03 mGy/MBq
Estimated Absorbed Dose, Breasts [1, 3]: 8.51E−03 mGy/MBq
Estimated Absorbed Dose, Gallbladder Wall [1, 3]: 2.40E−02 mGy/MBq
Estimated Absorbed Dose, Heart Wall [1, 3]: 1.80E−02 mGy/MBq
Estimated Absorbed Dose, Kidneys [1, 3]: 1.48E−02 mGy/MBq
Estimated Absorbed Dose, LLI Wall [1, 3]: 8.94E−02 mGy/MBq
Estimated Absorbed Dose, Liver [1, 3]: 1.88E−02 mGy/MBq
Estimated Absorbed Dose, Lungs [1, 3]: 3.10E−02 mGy/MBq
Estimated Absorbed Dose, Muscle [1, 3]: 9.70E−03 mGy/MBq
Estimated Absorbed Dose, Osteogenic Cells [1, 3]: 1.52E−02 mGy/MBq
Estimated Absorbed Dose, Ovaries [1, 3]: 1.63E−02 mGy/MBq
Estimated Absorbed Dose, Pancreas [1, 3]: 1.25E−02 mGy/MBq
Estimated Absorbed Dose, Red Marrow [1, 3]: 9.72E−03 mGy/MBq
Estimated Absorbed Dose, Skin [1, 3]: 7.33E−03 mGy/MBq
Estimated Absorbed Dose, Small Intestine [1, 3]: 1.29E−02 mGy/MBq
Estimated Absorbed Dose, Spleen [1, 3]: 1.10E−02 mGy/MBq
Estimated Absorbed Dose, Stomach Wall [1, 3]: 1.14E−02 mGy/MBq
Estimated Absorbed Dose, Thymus [1, 3]: 1.06E−02 mGy/MBq
Estimated Absorbed Dose, Thyroid [1, 3]: 8.89E−03 mGy/MBq
Estimated Absorbed Dose, Total Body [1, 3]: 1.06E−02 mGy/MBq
Estimated Absorbed Dose, ULI Wall [1, 3]: 1.24E−02 mGy/MBq
Estimated Absorbed Dose, Urinary Bladder Wall [1, 3]: 1.49E−02 mGy/MBq
Estimated Absorbed Dose, Uterus [1, 3]: 1.28E−02 mGy/MBq
Effective Dose ([1]; Female, initial mouse study): 1.84E−02 mSv/MBq
Estimated Absorbed Dose, Adrenals ([1]; Female, initial mouse study): 4.38E−02 mGy/MBq
Estimated Absorbed Dose, Brain ([1]; Female, initial mouse study): 8.38E−03 mGy/MBq
Estimated Absorbed Dose, Breasts ([1]; Female, initial mouse study): 1.16E−02 mGy/MBq
Estimated Absorbed Dose, Gallbladder Wall ([1]; Female, initial mouse study): 2.80E−02 mGy/MBq
Estimated Absorbed Dose, Heart Wall ([1]; Female, initial mouse study): 3.96E−02 mGy/MBq
Estimated Absorbed Dose, Kidneys ([1]; Female, initial mouse study): 2.67E−02 mGy/MBq
Estimated Absorbed Dose, LLI Wall ([1]; Female, initial mouse study): 1.61E−02 mGy/MBq
Estimated Absorbed Dose, Liver ([1]; Female, initial mouse study): 2.04E−02 mGy/MBq
Estimated Absorbed Dose, Lungs ([1]; Female, initial mouse study): 4.52E−02 mGy/MBq
Estimated Absorbed Dose, Muscle ([1]; Female, initial mouse study): 1.27E−02 mGy/MBq
Estimated Absorbed Dose, Osteogenic Cells ([1]; Female, initial mouse study): 2.01E−02 mGy/MBq
Estimated Absorbed Dose, Ovaries ([1]; Female, initial mouse study): 1.71E−02 mGy/MBq
Estimated Absorbed Dose, Pancreas ([1]; Female, initial mouse study): 1.68E−02 mGy/MBq
Estimated Absorbed Dose, Red Marrow ([1]; Female, initial mouse study): 1.25E−02 mGy/MBq
Estimated Absorbed Dose, Skin ([1]; Female, initial mouse study): 9.71E−03 mGy/MBq
Estimated Absorbed Dose, Small Intestine ([1]; Female, initial mouse study): 3.97E−02 mGy/MBq
Estimated Absorbed Dose, Spleen ([1]; Female, initial mouse study): 1.51E−02 mGy/MBq
Estimated Absorbed Dose, Stomach Wall ([1]; Female, initial mouse study): 1.54E−02 mGy/MBq
Estimated Absorbed Dose, Thymus ([1]; Female, initial mouse study): 1.47E−02 mGy/MBq
Estimated Absorbed Dose, Thyroid ([1]; Female, initial mouse study): 1.19E−02 mGy/MBq
Estimated Absorbed Dose, Total Body ([1]; Female, initial mouse study): 1.40E−02 mGy/MBq
Estimated Absorbed Dose, ULI Wall ([1]; Female, initial mouse study): 1.89E−02 mGy/MBq
Estimated Absorbed Dose, Urinary Bladder Wall ([1]; Female, initial mouse study): 1.51E−02 mGy/MBq
Estimated Absorbed Dose, Uterus ([1]; Female, initial mouse study): 1.67E−02 mGy/MBq
Effective Dose [1, 4]: 2.05E−02 mSv/MBq
Estimated Absorbed Dose, Adrenals [1, 4]: 2.22E−02 mGy/MBq
Estimated Absorbed Dose, Brain [1, 4]: 5.89E−03 mGy/MBq
Estimated Absorbed Dose, Breasts [1, 4]: 7.18E−03 mGy/MBq
Estimated Absorbed Dose, Gallbladder Wall [1, 4]: 2.01E−02 mGy/MBq
Estimated Absorbed Dose, Heart Wall [1, 4]: 2.03E−02 mGy/MBq
Estimated Absorbed Dose, Kidneys [1, 4]: 1.57E−02 mGy/MBq
Estimated Absorbed Dose, LLI Wall [1, 4]: 7.82E−02 mGy/MBq
Estimated Absorbed Dose, Liver [1, 4]: 1.30E−02 mGy/MBq
Estimated Absorbed Dose, Lungs [1, 4]: 3.10E−02 mGy/MBq
Estimated Absorbed Dose, Muscle [1, 4]: 8.04E−03 mGy/MBq
Estimated Absorbed Dose, Osteogenic Cells [1, 4]: 1.20E−02 mGy/MBq
Estimated Absorbed Dose, Pancreas [1, 4]: 1.03E−02 mGy/MBq
Estimated Absorbed Dose, Red Marrow [1, 4]: 8.22E−03 mGy/MBq
Estimated Absorbed Dose, Skin [1, 4]: 6.09E−03 mGy/MBq
Estimated Absorbed Dose, Small Intestine [1, 4]: 1.11E−02 mGy/MBq
Estimated Absorbed Dose, Spleen [1, 4]: 9.11E−03 mGy/MBq
Estimated Absorbed Dose, Stomach Wall [1, 4]: 9.42E−03 mGy/MBq
Estimated Absorbed Dose, Testes [1, 4]: 7.70E−03 mGy/MBq
Estimated Absorbed Dose, Thymus [1, 4]: 8.97E−03 mGy/MBq
Estimated Absorbed Dose, Thyroid [1, 4]: 7.90E−03 mGy/MBq
Estimated Absorbed Dose, Total Body [1, 4]: 8.85E−03 mGy/MBq
Estimated Absorbed Dose, ULI Wall [1, 4]: 9.96E−03 mGy/MBq
Estimated Absorbed Dose, Urinary Bladder Wall [1, 4]: 1.16E−02 mGy/MBq
Effective Dose ([1]; Male, initial mouse study): 1.53E−02 mSv/MBq
Estimated Absorbed Dose, Adrenals ([1]; Male, initial mouse study): 3.72E−02 mGy/MBq
Estimated Absorbed Dose, Brain ([1]; Male, initial mouse study): 7.01E−03 mGy/MBq
Estimated Absorbed Dose, Breasts ([1]; Male, initial mouse study): 9.21E−03 mGy/MBq
Estimated Absorbed Dose, Gallbladder Wall ([1]; Male, initial mouse study): 2.42E−02 mGy/MBq
Estimated Absorbed Dose, Heart Wall ([1]; Male, initial mouse study): 3.07E−02 mGy/MBq
Estimated Absorbed Dose, Kidneys ([1]; Male, initial mouse study): 2.38E−02 mGy/MBq
Estimated Absorbed Dose, LLI Wall ([1]; Male, initial mouse study): 1.28E−02 mGy/MBq
Estimated Absorbed Dose, Liver ([1]; Male, initial mouse study): 1.56E−02 mGy/MBq
Estimated Absorbed Dose, Lungs ([1]; Male, initial mouse study): 3.57E−02 mGy/MBq
Estimated Absorbed Dose, Muscle ([1]; Male, initial mouse study): 1.02E−02 mGy/MBq
Estimated Absorbed Dose, Osteogenic Cells ([1]; Male, initial mouse study): 1.54E−02 mGy/MBq
Estimated Absorbed Dose, Ovaries ([1]; Male, initial mouse study): 1.40E−02 mGy/MBq
Estimated Absorbed Dose, Pancreas ([1]; Male, initial mouse study): 1.35E−02 mGy/MBq
Estimated Absorbed Dose, Red Marrow ([1]; Male, initial mouse study): 1.02E−02 mGy/MBq
Estimated Absorbed Dose, Skin ([1]; Male, initial mouse study): 7.82E−03 mGy/MBq
Estimated Absorbed Dose, Small Intestine ([1]; Male, initial mouse study): 3.38E−02 mGy/MBq
Estimated Absorbed Dose, Spleen ([1]; Male, initial mouse study): 1.19E−02 mGy/MBq
Estimated Absorbed Dose, Stomach Wall ([1]; Male, initial mouse study): 1.23E−02 mGy/MBq
Estimated Absorbed Dose, Testes ([1]; Male, initial mouse study): 9.46E−03 mGy/MBq
Estimated Absorbed Dose, Thymus ([1]; Male, initial mouse study): 1.16E−02 mGy/MBq
Estimated Absorbed Dose, Thyroid ([1]; Male, initial mouse study): 1.02E−02 mGy/MBq
Estimated Absorbed Dose, Total Body ([1]; Male, initial mouse study): 1.12E−02 mGy/MBq
Estimated Absorbed Dose, ULI Wall ([1]; Male, initial mouse study): 1.52E−02 mGy/MBq
Estimated Absorbed Dose, Urinary Bladder Wall ([1]; Male, initial mouse study): 1.37E−02 mGy/MBq
critical organ ([1]; additional work with further mice): lower intestinal wall
whole-body effective dose ([1]; female phantom, additional work with further mice (Table 2)): 23.7 μSv/MBq
whole-body effective dose ([1]; female phantom, initial mouse study (Table 1)): 18.4 μSv/MBq
critical organ ([1]; initial mouse study): adrenal gland
whole-body effective dose ([1]; male phantom, additional work with further mice (Table 2)): 20.5 μSv/MBq
whole-body effective dose ([1]; male phantom, initial mouse study (Table 1)): 15.3 μSv/MBq
SUV relative to the blood pool versus naive rats (TSPO): increase
negative effects following administration in vivo [2]: no negative effects were apparent
SMILES: CC[C@@H](C)N(C)C(=O)c1nc2ccccc2c(-c2ccccc2)c1C[18F] [^18F-LW223, (R)-(N-sec-Butyl)-3-[19-fluoro]-methyl-N-methyl-4-phenylquinoline-2-carboxamide]
